Experimental findings from publication PMC4848466, “Insights into the activation mechanism of class I HDAC complexes by inositol phosphates” (Nature Communications, 2016) are described below.

Usually kcat stands for the number of substrate molecules converted per active site and unit of time at saturation.

Holding throughout (type): biochemical
Experiment [1] has as its target T1, HDAC3:SMRT complex (Homo sapiens, UniProt O15379).
T1 construct: Full-length HDAC3, and residues 350–480 of SMRT were cloned into pcDNA3 vectors; residues 350–480 of SMRT were cloned into pcDNA3 vectors; FLAG tag with TEV protease cleavage site (cleaved yes); made in house; host or cells: HEK293F cells (co-transfection, pcDNA3)
Put plainly: Activation of HDAC3:SMRT deacetylase activity by inositol phosphates (BOC-Lys-AMC assay). The conditions noted are these: BOC-Lys-AMC assay; one-site binding fit of HDAC activity vs inositol phosphate concentration; read-out: Kdapp (apparent Kd from activation titration). The protocol:
(§1) To understand the stereochemical basis underlying the activation of HDAC3 by inositol phosphates we investigated the ability of a range of inositol phosphates and derivatives to enhance the activity of HDAC3 in deacetylase assays. To achieve this we used an assay based on the complex of HDAC3 with an extended SMRT construct which is stable in the absence of inositol phosphate.
(§2) HDAC activity of the protein complex was measured using an HDAC assay with a BOC-Lys-AMC substrate. 50 nM HDAC3:SMRT or 50 nM HDAC1:MTA1 was incubated with 100 μM BOC-Lys-AMC substrate in a final volume of 50 μl buffer A (50 mM Tris pH 7.5, 50 mM NaCl, 5% Glycerol), in a black 96-well plate for 30 min at 37 °C.
(§3) To test the ability of inositol phosphates and derivatives to activate the complex, 50 nM HDAC3:SMRT (which had been stripped of its endogenous co-purified inositol phosphate) or 50 nM HDAC1:MTA1 was incubated with inositol phosphate or analogue for 30 min at 37 °C before the HDAC activity was measured. All measurements were performed in triplicate and data analysed using GraphPad Prism (version 6.0, GraphPad Software, Inc).

Experiment [2] addresses T2, HDAC3:SMRT complex (Homo sapiens, UniProt O15379+Q9Y618).
T2 construct: Full-length HDAC3, and residues 350–480 of SMRT were cloned into pcDNA3 vectors; residues 350–480 of SMRT were cloned into pcDNA3 vectors; FLAG tag with TEV protease cleavage site (cleaved yes); made in house; host or cells: HEK293F cells (co-transfection, pcDNA3)
The experiment is described as above. As for the experimental part:
as §1, §2, §3

Another experiment concerns the target T3, HDAC1:MTA1 (Homo sapiens, UniProt Q13330+Q13547).
T3 construct: Full-length HDAC1 and residues 162–354 of MTA1 were cloned into pcDNA3 vectors; residues 162–354 of MTA1 were cloned into pcDNA3 vectors; FLAG tag with TEV protease cleavage site (cleaved yes); made in house; host or cells: HEK293F cells (co-transfection, pcDNA3)
Put plainly: Michaelis-Menten enzyme kinetics on Caliper EZ Reader with H4K16ac peptide. The note with it: H4 12–18K16ac peptide; in the presence of the inositol phosphate. An excerpt:
(§4) To explore further the differences between the two complexes we established a more physiological, real-time kinetic assay using substrates based on the tails of histones H4 and H3. The peptides tested were; H4 12–18(K16ac), H3 23–29(K27ac) and H3 6–12(K9ac). […] HDAC3:SMRT is most catalytically active against H3 23–29(K27ac) (Supplementary Fig. 7), whereas HDAC1:MTA1 is most catalytically active against H4 12–18(K16ac) (Fig. 4d). In both cases an approximate 3-fold greater kcat is observed for the preferred versus non-preferred substrate, in the absence of inositol phosphate. […] The net effect of both inositol phosphates tested was between a two and fivefold increase in catalytic efficiency (kcat/Km) (Fig. 4c,d, Supplementary Fig. 7).
(§5) Michaelis–Menten kinetics were determined using a HDAC assay on the Caliper EZ Reader II system (Caliper Life Sciences, http://www.caliperls.com). To assess the effect of inositol phosphate, 20 nM HDAC3:SMRT or 80 nM HDAC1:MTA1 were pre-mixed with InsP6 before dilution and addition of fluorescein-labelled H4K16Ac substrate. Reactions were carried out in duplicate in 30 μl reaction volumes, performed at room temperature in 50 mM Tris pH 7.5, 50 mM NaCl, 5% glycerol. Data was analysed using GraphPad Prism (version 6.0).

Another experiment concerns the target T4, HDAC1:MTA1 complex (Homo sapiens, UniProt Q13330+Q13547).
T4 construct: Full-length HDAC1 and residues 162–354 of MTA1 were cloned into pcDNA3 vectors; residues 162–354 of MTA1 were cloned into pcDNA3 vectors; FLAG tag with TEV protease cleavage site (cleaved yes); made in house; host or cells: HEK293F cells (co-transfection, pcDNA3)
Put plainly: Activation of HDAC1:MTA1 deacetylase activity by inositol phosphates (BOC-Lys-AMC assay). As for the experimental part:
as §2, §3

In the next experiment the target is HDAC3:SMRT (Homo sapiens, UniProt O15379+Q9Y618). Put plainly: Michaelis-Menten enzyme kinetics on Caliper EZ Reader with H4K16ac peptide. Details: Full-length HDAC3, and residues 350–480 of SMRT were cloned into pcDNA3 vectors; residues 350–480 of SMRT were cloned into pcDNA3 vectors; FLAG tag with TEV protease cleavage site (cleaved yes); made in house; host or cells: HEK293F cells (co-transfection, pcDNA3). The conditions noted are these: H4 12–18K16ac peptide; in the presence of the inositol phosphate.
Sequence of HDAC3:SMRT (O15379 whole entry, the tested form may be a part): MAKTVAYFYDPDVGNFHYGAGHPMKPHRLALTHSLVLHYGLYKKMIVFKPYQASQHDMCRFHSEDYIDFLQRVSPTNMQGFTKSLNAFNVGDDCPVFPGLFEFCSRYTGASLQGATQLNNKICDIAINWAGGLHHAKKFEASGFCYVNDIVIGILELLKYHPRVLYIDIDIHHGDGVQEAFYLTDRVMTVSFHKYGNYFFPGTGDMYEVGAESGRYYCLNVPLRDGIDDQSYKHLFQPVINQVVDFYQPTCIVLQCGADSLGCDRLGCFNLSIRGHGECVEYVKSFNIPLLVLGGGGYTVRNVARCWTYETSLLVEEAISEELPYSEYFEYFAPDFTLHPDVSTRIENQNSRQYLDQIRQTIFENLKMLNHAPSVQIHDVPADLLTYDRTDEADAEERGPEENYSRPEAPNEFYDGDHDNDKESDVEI
Sequence of HDAC3:SMRT (Q9Y618 350-480): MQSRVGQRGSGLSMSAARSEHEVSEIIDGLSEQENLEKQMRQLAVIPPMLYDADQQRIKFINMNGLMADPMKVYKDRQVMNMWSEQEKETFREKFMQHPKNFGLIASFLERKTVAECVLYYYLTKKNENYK
Excerpt: as §4, §5

In a further experiment the target is T5, D99A HDAC1 mutant (Homo sapiens, UniProt Q13330+Q13547, D99A).
T5 construct: Full-length HDAC1 and residues 162–354 of MTA1 were cloned into pcDNA3 vectors; residues 162–354 of MTA1 were cloned into pcDNA3 vectors; FLAG tag with TEV protease cleavage site (cleaved yes); made in house
T5 sequence (Q13547 whole entry D99A, the tested form may be a part): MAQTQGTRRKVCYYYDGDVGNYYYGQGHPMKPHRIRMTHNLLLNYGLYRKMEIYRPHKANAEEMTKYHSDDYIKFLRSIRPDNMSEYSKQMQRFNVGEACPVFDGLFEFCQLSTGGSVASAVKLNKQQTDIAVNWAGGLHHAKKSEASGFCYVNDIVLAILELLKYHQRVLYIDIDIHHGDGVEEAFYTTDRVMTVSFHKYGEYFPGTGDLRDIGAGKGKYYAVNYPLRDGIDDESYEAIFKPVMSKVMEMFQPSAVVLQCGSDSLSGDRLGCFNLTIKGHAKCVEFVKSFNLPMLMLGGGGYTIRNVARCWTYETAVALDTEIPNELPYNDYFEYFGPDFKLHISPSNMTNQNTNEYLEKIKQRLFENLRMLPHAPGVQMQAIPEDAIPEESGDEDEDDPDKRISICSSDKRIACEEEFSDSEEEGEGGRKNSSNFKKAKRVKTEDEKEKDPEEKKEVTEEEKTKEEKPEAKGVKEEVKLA
T5 sequence (Q13330 162-354): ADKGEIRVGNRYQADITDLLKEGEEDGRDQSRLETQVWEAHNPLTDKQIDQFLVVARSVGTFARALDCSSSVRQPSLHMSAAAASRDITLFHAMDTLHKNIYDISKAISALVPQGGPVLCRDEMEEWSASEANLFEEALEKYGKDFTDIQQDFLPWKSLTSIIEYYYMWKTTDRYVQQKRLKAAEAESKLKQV
Put plainly: Deacetylase activity of D99A HDAC1 mutant (electrophoretic mobility shift assay, caliper platform). The conditions noted are these: addition of InsP6. The protocol:
Figure 5 Inhibition of HDAC1:MTA1 by a novel peptide-based inhibitor. (a) Inhibition curve of HDAC1:MTA1 by the histone H4 peptide H4K16Hx. (b)The position of H4K16Hx (pink) bound to the active site of HDAC1 (purple). The sidechain of HDAC1 residue D99 undergoes a significant rearrangement (indicated by arrow) to coordinate binding of the peptide (apo-HDAC1 shown in grey). […] HDAC assays were performed using an electrophoretic mobility shift assay on the caliper platform. Error bars indicate±s.e.m. (n=3).

T4 sequence (Q13547 whole entry, the tested form may be a part): as the sequence (Q13547 whole entry D99A, the tested form may be a part) above, with A99D counted along it
T4 sequence (Q13330 162-354): as the sequence (Q13330 162-354) above
T2 sequence (O15379 whole entry, the tested form may be a part): as the sequence (O15379 whole entry, the tested form may be a part) above
T2 sequence (Q9Y618 350-480): as the sequence (Q9Y618 350-480) above
T3 sequence (Q13547 whole entry, the tested form may be a part): as the sequence (Q13547 whole entry D99A, the tested form may be a part) above, with A99D counted along it
T3 sequence (Q13330 162-354): as the sequence (Q13330 162-354) above
T1 sequence (O15379 whole entry, the tested form may be a part): as the sequence (O15379 whole entry, the tested form may be a part) above
T1 sequence (Q9Y618 350-480, further chain): as the sequence (Q9Y618 350-480) above

With `O=P(O)(O)O[C@H]1[C@H](OP(=O)(O)O)[C@@H](OP(=O)(O)O)[C@H](OP(=O)(O)O)[C@@H](OP(=O)(O)O)[C@H]1OP(=O)(O)O` [InsP6, inositol hexaphosphate], the results for the Kd at HDAC3:SMRT complex [1] and on HDAC1:MTA1 complex (read-out: Kdapp (apparent Kd from activation titration)) were 600 nM and 4000 nM, respectively. For the same molecule, the “HDAC3 activation relative to maximal Ins(1,4,5,6)P4-stimulated activity” value at HDAC3:SMRT complex [2] (BOC-Lys-AMC assay, titration / maximal activation) was “same degree as Ins(1,4,5,6)P4”. The “increase in apparent affinity compared with Ins(1,4,5,6)P4” value at HDAC3:SMRT complex [2] (ratio of apparent Kd values) stood at 16 fold. Moreover, the kcat on HDAC1:MTA1 worked out at 1.01 s⁻¹; at HDAC3:SMRT it was 2.59 s⁻¹. For the same molecule, the “activation of HDAC1:MTA1 complex” value on HDAC1:MTA1 complex is on record as “can be activated”. For the same molecule, the “rescue of deacetylase activity of D99A mutant” value at D99A HDAC1 mutant is “activity is not rescued”.
